Laboratory results from US20160272617A1, “SUBSTITUTED PHENYLALANINE DERIVATIVES” (BAYER PHARMA AKTIENGESELLSCHAFT, priority 2013, published 2016).
Structures can show the parent of a compound that is named as a salt. Values belong to the compound of their own block, whether it stands above or below them.

Key:
[1] = target: T1, human factor XIa (Homo sapiens, UniProt P03951); assay: Measurement of FXIa inhibition (fluorogenic peptide substrate Boc-Glu(OBzl)-Ala-Arg-AMC); type: biochemical; conditions: factor XIa from Kordia, 15 min preincubation, 30 min at 22° C., fluorescence
T1 construct: purchased Kordia
In short: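 Released AMC fluorescence (360/460 nm) read after 30 min at 22 °C. The reaction was started with Boc-Glu(OBzl)-Ala-Arg-AMC (10 μM stock) after a 15 min preincubation of the enzyme (0.45 nM stock) with compound (final 50 μM to 0.00013 μM).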

[2] = tested on: human and animal plasma; assay: Determination of anticoagulatory activity: activated partial thromboplastin time (aPTT) in plasma; conditions: concentration of test substance which brings about a 1.5-fold extension of the aPTT; plasma species not given
In short: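 Citrated plasma (1:9, 0.11 M citrate; 4000 g, 15 min) from human or animal blood incubated with test compound and cephalin/kaolin PTT reagent for 3 min at 37° C.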

T1 sequence (P03951 388-625 limits assumed): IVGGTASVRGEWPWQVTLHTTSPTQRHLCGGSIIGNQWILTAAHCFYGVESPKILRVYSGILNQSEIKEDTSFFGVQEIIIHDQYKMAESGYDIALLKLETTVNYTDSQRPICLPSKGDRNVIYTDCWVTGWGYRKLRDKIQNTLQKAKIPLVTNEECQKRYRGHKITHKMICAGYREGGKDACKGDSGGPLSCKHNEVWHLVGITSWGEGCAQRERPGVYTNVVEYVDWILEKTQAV
T1 sequence (P03951 19-387 partner limits assumed): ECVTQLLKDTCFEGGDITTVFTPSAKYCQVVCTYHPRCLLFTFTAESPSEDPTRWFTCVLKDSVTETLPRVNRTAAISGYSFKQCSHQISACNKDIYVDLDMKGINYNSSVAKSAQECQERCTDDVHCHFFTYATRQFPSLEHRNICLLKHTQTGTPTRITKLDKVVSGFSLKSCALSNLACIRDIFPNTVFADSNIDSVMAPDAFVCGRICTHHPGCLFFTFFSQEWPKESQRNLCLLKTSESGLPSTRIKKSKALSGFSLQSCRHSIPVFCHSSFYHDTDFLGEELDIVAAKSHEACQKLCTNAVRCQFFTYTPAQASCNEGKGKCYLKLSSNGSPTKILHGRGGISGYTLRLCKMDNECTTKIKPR

Compound: Cc1c(C(=O)NC2CCNCC2)ccc(-c2ccc(C[C@H](NC(=O)[C@H]3CC[C@H](CN)CC3)C(=O)Nc3ccc(-c4nn[nH]n4)cc3)cc2)c1C [Example 123, 4′-[(2S)-2-({[trans-4-(Aminomethyl)cyclohexyl]carbonyl}amino)-3-oxo-3-{[4-(2H-tetrazol-5-yl)phenyl]amino}propyl]-2,3-dimethyl-N-(piperidin-4-yl)biphenyl-4-carboxamide hydrochloride]
- IC50 [1]: 2.5 nM
- aPTT [2]: 0.02 µmol/L

Compound: Cc1cc(C(=O)NC2CCNCC2)ccc1-c1ccc(C[C@H](NC(=O)[C@H]2CC[C@H](CN)CC2)C(=O)Nc2ccc3nc(C(F)(F)C(F)(F)C(F)(F)F)[nH]c3c2)cc1 [Example 85, 4′-[(2S)-2-({[trans-4-(Aminomethyl)cyclohexyl]carbonyl}amino)-3-{[2-(heptafluoropropyl)-1H-benzimidazol-6-yl]amino}-3-oxopropyl]-2-methyl-N-(piperidin-4-yl)biphenyl-4-carboxamide hydrochloride]
- IC50 [1]: 16 nM
- aPTT [2]: 0.12 µmol/L

Compound: Cc1nc2ccc(NC(=O)[C@H](Cc3ccc(-c4ccc(C(=O)NC5CCNCC5)cc4C)cc3)NC(=O)[C@H]3CC[C@H](CN)CC3)cc2[nH]1 [Example 50, 4′-{(2S)-2-({[trans-4-(Aminomethyl)cyclohexyl]carbonyl}amino)-3-[(2-methyl-1H-benzimidazol-6-yl)amino]-3-oxopropyl}-2-methyl-N-(piperidin-4-yl)biphenyl-4-carboxamide hydrochloride]
- IC50 [1]: 8.3 nM
- aPTT [2]: 0.16 µmol/L

Compound: Cc1cc(C(=O)N[C@H]2CCNC2)ccc1-c1ccc(C[C@H](NC(=O)[C@H]2CC[C@H](CN)CC2)C(=O)Nc2ccc3c(=O)[nH][nH]c3c2)cc1 [Example 25, 4′-{(2S)-2-({[trans-4-(Aminomethyl)cyclohexyl]carbonyl}amino)-3-oxo-3-[(3-oxo-2,3-dihydro-1H-indazol-6-yl)amino]propyl}-2-methyl-N-[(3S)-pyrrolidin-3-yl]biphenyl-4-carboxamide hydrochloride]
- IC50 [1]: 14 nM
- aPTT [2]: 0.14 µmol/L

Compound: CNC(=O)C(F)(F)C(F)(F)c1n[nH]c(-c2ccc(NC(=O)[C@H](Cc3ccc(-c4ccc(C(=O)NC5CCNCC5)cc4C)cc3)NC(=O)[C@H]3CC[C@H](CN)CC3)cc2)n1 [Example 128, 4′-{(2S)-2-({[trans-4-(Aminomethyl)cyclohexyl]carbonyl}amino)-3-oxo-3-[(4-{3-[1,1,2,2-tetrafluoro-3-(methylamino)-3-oxopropyl]-1H-1,2,4-triazol-5-yl}phenyl)amino]propyl}-2-methyl-N-(piperidin-4-yl)biphenyl-4-carboxamide hydrochloride]
- IC50 [1]: 1.7 nM
- aPTT [2]: 0.14 µmol/L

Compound: COc1cc(C(=O)NC2CCN(C)CC2)cc(OC)c1-c1ccc(C[C@H](NC(=O)[C@H]2CC[C@H](CN)CC2)C(=O)Nc2ccc(-c3nn[nH]n3)cc2)cc1 [Example 117, 4′-[(2S)-2-({[trans-4-(Aminomethyl)cyclohexyl]carbonyl}amino)-3-oxo-3-{[4-(2H-tetrazol-5-yl)phenyl]amino}propyl]-2,6-dimethoxy-N-(1-methylpiperidin-4-yl)biphenyl-4-carboxamide hydrochloride]
- IC50 [1]: 8.9 nM
- aPTT [2]: 0.18 µmol/L

Compound: NC[C@H]1CC[C@H](C(=O)N[C@@H](Cc2ccc(-c3cc(F)c(C(=O)NC4CCNCC4)c(F)c3)cc2)C(=O)Nc2ccc(-c3nn[nH]n3)cc2)CC1 [Example 118, hydrochloride]
- IC50 [1]: 2.9 nM
- aPTT [2]: 0.11 µmol/L

Compound: CCN(CC)CCNC(=O)c1ccc(-c2ccc(C[C@H](NC(=O)[C@H]3CC[C@H](CN)CC3)C(=O)Nc3ccc4c(=O)[nH][nH]c4c3)cc2)c(C)c1 [Example 23, 4′-{(2S)-2-({[trans-4-(Aminomethyl)cyclohexyl]carbonyl}amino)-3-oxo-3-[(3-oxo-2,3-dihydro-1H-indazol-6-yl)amino]propyl}-N-[2-(diethylamino)ethyl]-2-methylbiphenyl-4-carboxamide hydrochloride]
- IC50 [1]: 27.5 nM
- aPTT [2]: 0.28 µmol/L

Compound: COC(=O)C(F)(F)C(F)(F)c1n[nH]c(-c2ccc(NC(=O)[C@H](Cc3ccc(-c4ccc(C(=O)NC5CCNCC5)cc4C)cc3)NC(=O)[C@H]3CC[C@H](CN)CC3)cc2)n1 [Example 129, Methyl 3-{5-[4-({(2S)-2-({[trans-4-(aminomethyl)cyclohexyl]carbonyl}amino)-3-[2′-methyl-4′-(piperidin-4-ylcarbamoyl)biphenyl-4-yl]propanoyl}amino)phenyl]-1H-1,2,4-triazol-3-yl}-2,2,3,3-tetrafluoropropanoate hydrochloride]
- IC50 [1]: 1.8 nM
- aPTT [2]: 0.09 µmol/L

Compound: CCOc1cc(C(=O)NC2CCNCC2)ccc1-c1ccc(C[C@H](NC(=O)[C@H]2CC[C@H](CN)CC2)C(=O)Nc2ccc(-c3nn[nH]n3)cc2)cc1 [Example 119, 4′-[(2S)-2-({[trans-4-(Aminomethyl)cyclohexyl]carbonyl}amino)-3-oxo-3-{[4-(2H-tetrazol-5-yl)phenyl]amino}propyl]-2-ethoxy-N-(piperidin-4-yl)biphenyl-4-carboxamide hydrochloride]
- IC50 [1]: 2.1 nM
- aPTT [2]: 0.08 µmol/L

- IC50 [1]: 2.5 nM
Compound: NC[C@H]1CC[C@H](C(=O)N[C@@H](Cc2ccc(-c3ccc(C(=O)NC4CCNCC4)cc3Cl)cc2)C(=O)Nc2ccc(-c3nn[nH]n3)cc2)CC1 [Example 11, 4′-[(2S)-2-({[trans-4-(Aminomethyl)cyclohexyl]carbonyl}amino)-3-oxo-3-{[4-(2H-tetrazol-5-yl)phenyl]amino}propyl]-2-chloro-N-(piperidin-4-yl)biphenyl-4-carboxamide hydrochloride]
- aPTT [2]: 0.08 µmol/L

Compound: Cc1cc(C(=O)NC2CCN(C(C)C)CC2)ccc1-c1ccc(C[C@H](NC(=O)[C@H]2CC[C@H](CN)CC2)C(=O)Nc2ccc(-c3nn[nH]n3)cc2)cc1 [Example 40, 4′-[(2S)-2-({[trans-4-(Aminomethyl)cyclohexyl]carbonyl}amino)-3-oxo-3-{[4-(2H-tetrazol-5-yl)phenyl]amino}propyl]-N-(1-isopropylpiperidin-4-yl)-2-methylbiphenyl-4-carboxamide hydrochloride]
- IC50 [1]: 3.6 nM
- aPTT [2]: 0.11 µmol/L

Compound: Cc1cc(C(=O)NCCO)ccc1-c1ccc(C[C@H](NC(=O)[C@H]2CC[C@H](CN)CC2)C(=O)Nc2ccc3cn[nH]c3c2)cc1 [Example 17, 4′-[(2S)-2-({[trans-4-(Aminomethyl)cyclohexyl]carbonyl}amino)-3-(1H-indazol-6-ylamino)-3-oxopropyl]-N-(2-hydroxyethyl)-2-methylbiphenyl-4-carboxamide hydrochloride]
- IC50 [1]: 6.1 nM
- aPTT [2]: 0.35 µmol/L

Compound: Cc1cc(C(=O)N[C@H]2CC[C@H](O)CC2)ccc1-c1ccc(C[C@H](NC(=O)[C@H]2CC[C@H](CN)CC2)C(=O)Nc2ccc(-c3nc(C(F)(F)C(F)(F)CO)n[nH]3)cc2)cc1 [Example 110, 4′-[(2S)-2-({[trans-4-(Aminomethyl)cyclohexyl]carbonyl}amino)-3-oxo-3-({4-[3-(1,1,2,2-tetrafluoro-3-hydroxypropyl)-1H-1,2,4-triazol-5-yl]phenyl}amino)propyl]-N-(trans-4-hydroxycyclohexyl)-2-methylbiphenyl-4-carboxamide hydrochloride]
- IC50 [1]: 1.8 nM
- aPTT [2]: 0.11 µmol/L

Compound: Cc1cc(C(=O)NC2CCN(C(C)C)CC2)ccc1-c1ccc(C[C@H](NC(=O)[C@H]2CC[C@H](CN)CC2)C(=O)Nc2ccc(-c3nn[nH]n3)c(F)c2)cc1 [Example 89, 4′-[(2S)-2-({[trans-4-(Aminomethyl)cyclohexyl]carbonyl}amino)-3-{[3-fluoro-4-(2H-tetrazol-5-yl)phenyl]amino}-3-oxopropyl]-N-(1-isopropylpiperidin-4-yl)-2-methylbiphenyl-4-carboxamide hydrochloride]
- IC50 [1]: 4.3 nM
- aPTT [2]: 0.03 µmol/L

Compound: COC(=O)C1CCC(NC(=O)c2ccc(-c3ccc(C[C@H](NC(=O)[C@H]4CC[C@H](CN)CC4)C(=O)Nc4ccc(-c5nnn[nH]5)cc4)cc3)c(C)c2)C(=O)N1 (stereo partly drawn) [Example 151, Methyl 5-[({4′-[(2S)-2-({[trans-4-(aminomethyl)cyclohexyl]carbonyl}amino)-3-oxo-3-{[4-(1H-tetrazol-5-yl)phenyl]amino}propyl]-2-methylbiphenyl-4-yl}carbonyl)amino]-6-oxopiperidine-2-carboxylate hydrochloride]
- IC50 [1]: 0.97 nM
- aPTT [2]: 0.1 µmol/L

Compound: Cc1cc(C(=O)NC2CCNCC2)ccc1-c1ccc(C[C@H](NC(=O)[C@H]2CC[C@H](CN)CC2)C(=O)Nc2ccc(-c3nc(C(F)(F)C(F)(F)C(=O)N(C)C)n[nH]3)cc2)cc1 [Example 126, 4′-{(2S)-2-({[trans-4-(Aminomethyl)cyclohexyl]carbonyl}amino)-3-[(4-{3-[3-(dimethylamino)-1,1,2,2-tetrafluoro-3-oxopropyl]-1H-1,2,4-triazol-5-yl}phenyl)amino]-3-oxopropyl}-2-methyl-N-(piperidin-4-yl)biphenyl-4-carboxamide hydrochloride]
- IC50 [1]: 1.6 nM
- aPTT [2]: 0.14 µmol/L

Compound: Cc1cc(C(=O)NC2CCNCC2)ccc1-c1ccc(C[C@H](NC(=O)[C@H]2CC[C@H](CN)CC2)C(=O)Nc2ccc(-c3nc(C(F)(F)F)n[nH]3)cc2)cc1 [Example 48, 4′-[(2S)-2-({[trans-4-(Aminomethyl)cyclohexyl]carbonyl}amino)-3-oxo-3-({4-[3-(trifluoromethyl)-1H-1,2,4-triazol-5-yl]phenyl}amino)propyl]-2-methyl-N-(piperidin-4-yl)biphenyl-4-carboxamide hydrochloride]
- IC50 [1]: 2.7 nM
- aPTT [2]: 0.1 µmol/L
